Laboratory results taken from ChEMBL document CHEMBL1201862, “PubChem BioAssay data set” (2004).
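Tested at 5 concentrations; 48 h exposure; 96-well plates; endpoints linearly interpolated, else capped at highest concentration. Here, GI50 denotes the concentration required for 50% inhibition of growth.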 Activity calls are given as the source filed them. Cut-off read from the data, not from the text of the source: active = GI50 up to about 1.1 µM and inactive = higher.

Experiments:
Assay in all cases: DTP human tumour cell line panel, 48 h
786-0 = test system: 786-0
HOP-92 = test system: HOP-92
CCRF-CEM = test system: CCRF-CEM
RXF 393 = test system: RXF 393
SF-295 = test system: SF-295
NCI-H460 = test system: NCI-H460
HOP-62 = test system: HOP-62
CAKI-1 = test system: CAKI-1
UACC-62 = test system: UACC-62
SNB-75 = test system: SNB-75
HCC 2998 = test system: HCC 2998
A549 = test system: A549
K562 = test system: K562
HT-29 = test system: HT-29
SR = test system: SR
M14 = test system: M14

Structure (SMILES)	GI50 (786-0)	GI50 (HOP-92)	GI50 (CCRF-CEM)	GI50 (RXF 393)	GI50 (SF-295)	GI50 (NCI-H460)	GI50 (HOP-62)	GI50 (CAKI-1)	GI50 (UACC-62)	GI50 (SNB-75)	GI50 (HCC 2998)	GI50 (A549)	GI50 (K562)	GI50 (HT-29)	GI50 (SR)	GI50 (M14)
Cc1ccc(/C=C/C(=O)c2sc(-n3nc(-c4ccccc4)cc3-c3ccccc3)nc2C)cc1	> 100 µM (inactive)	> 100 µM (inactive)	> 100 µM (inactive)	> 100 µM (inactive)	> 100 µM (inactive)	> 100 µM (inactive)	> 100 µM (inactive)	12.4 µM (inactive)	> 100 µM (inactive)	4.26 µM (inactive)	60.8 µM (inactive)	> 100 µM (inactive)	77.8 µM (inactive)	55 µM (inactive)	–	–
CC(=O)Nc1ccc(-c2nnc(SCC(=O)Nc3cccc(C)c3)o2)cc1	12.8 µM (inactive)	13 µM (inactive)	6.62 µM (inactive)	12.8 µM (inactive)	10.8 µM (inactive)	15 µM (inactive)	28.7 µM (inactive)	16.7 µM (inactive)	8.26 µM (inactive)	19.5 µM (inactive)	–	21.3 µM (inactive)	10.8 µM (inactive)	12.2 µM (inactive)	4.93 µM (inactive)	13 µM (inactive)
CC(C)CCCC(C)[C@H]1CCC2[C@@H]3CCC4Nc5c(cnn5-c5ccccc5)C[C@]4(C)C3CC[C@@]21C (some centres not stated)	15.7 µM (inactive)	–	7.45 µM (inactive)	2.78 µM (inactive)	2.84 µM (inactive)	14.1 µM (inactive)	14.3 µM (inactive)	5.11 µM (inactive)	8.05 µM (inactive)	2.88 µM (inactive)	15.8 µM (inactive)	52.2 µM (inactive)	28.1 µM (inactive)	10.6 µM (inactive)	–	39.8 µM (inactive)
COc1ccc2cc3c4cc(OC)c(OC)cc4ccn3c2c1	> 100 µM (inactive)	> 100 µM (inactive)	> 100 µM (inactive)	> 100 µM (inactive)	> 100 µM (inactive)	> 100 µM (inactive)	> 100 µM (inactive)	> 100 µM (inactive)	> 100 µM (inactive)	–	> 100 µM (inactive)	> 100 µM (inactive)	> 100 µM (inactive)	> 100 µM (inactive)	> 100 µM (inactive)	–
COc1ccc2nc3cccc(C(=O)NCCN(C)C)c3nc2c1	2.25 µM (inactive)	5.13 µM (inactive)	–	1.55 µM (inactive)	2.08 µM (inactive)	–	1.45 µM (inactive)	–	2.24 µM (inactive)	2.15 µM (inactive)	1.85 µM (inactive)	1.8 µM (inactive)	0.794 µM (active)	0.632 µM (active)	0.264 µM (active)	2.28 µM (inactive)
CCOC(=O)NC(=O)c1cn(CCCOC(=O)CCCCCCCCC(=O)OCCCn2cc(C(=O)NC(=O)OCC)c(=O)[nH]c2=O)c(=O)[nH]c1=O	15.8 µM (inactive)	–	3.47 µM (inactive)	> 10 µM (inactive)	22.8 µM (inactive)	39.4 µM (inactive)	26 µM (inactive)	7.28 µM (inactive)	17.5 µM (inactive)	32.5 µM (inactive)	10.3 µM (inactive)	55.6 µM (inactive)	4.01 µM (inactive)	34.8 µM (inactive)	–	21.5 µM (inactive)
CCOCN1COCN/C1=N/C#N	> 100 µM (inactive)	> 100 µM (inactive)	–	0.094 µM (active)	> 100 µM (inactive)	> 100 µM (inactive)	> 100 µM (inactive)	> 100 µM (inactive)	> 100 µM (inactive)	> 100 µM (inactive)	> 100 µM (inactive)	31.8 µM (inactive)	> 100 µM (inactive)	> 100 µM (inactive)	25.8 µM (inactive)	> 100 µM (inactive)
Cc1cc(C)c(C(=O)/C=C/c2ccccc2)c(C)c1	27.7 µM (inactive)	19.1 µM (inactive)	25.4 µM (inactive)	15.8 µM (inactive)	21.8 µM (inactive)	18.7 µM (inactive)	34.3 µM (inactive)	36.5 µM (inactive)	31.8 µM (inactive)	40.9 µM (inactive)	–	30.2 µM (inactive)	26.5 µM (inactive)	30.3 µM (inactive)	30.5 µM (inactive)	19.4 µM (inactive)
N#Cc1c(C(N)=O)ncn1Cc1ccccc1	> 100 µM (inactive)	> 100 µM (inactive)	> 100 µM (inactive)	> 100 µM (inactive)	> 100 µM (inactive)	> 100 µM (inactive)	> 100 µM (inactive)	> 100 µM (inactive)	> 100 µM (inactive)	> 100 µM (inactive)	> 100 µM (inactive)	> 100 µM (inactive)	> 100 µM (inactive)	> 100 µM (inactive)	–	> 100 µM (inactive)
O=C(NCCOC(=O)CCCCCCCCC(=O)OCCNC(=O)NC(=O)c1cn(Cc2ccccc2)c(=O)[nH]c1=O)NC(=O)c1cn(Cc2ccccc2)c(=O)[nH]c1=O	> 100 µM (inactive)	–	–	–	> 100 µM (inactive)	> 100 µM (inactive)	> 100 µM (inactive)	> 100 µM (inactive)	> 100 µM (inactive)	> 100 µM (inactive)	> 100 µM (inactive)	> 100 µM (inactive)	> 100 µM (inactive)	> 100 µM (inactive)	> 100 µM (inactive)	> 100 µM (inactive)
